Like-named read-outs stand apart in the source and are kept apart here.
How the values were obtained:
[1] = test system: HCV genotype 1a (H77 strain) replicon in HUH-7 cells; assay: HCV replicon luciferase reporter assay, genotype 1a; assay type: cell-based; settings: Hepatitis C virus, Huh-7, 72 h, 3 days incubation
Outline: (§1)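 Replicon inhibition for both genotypes was measured as Renilla luciferase signal (EnduRen, 7.5 μM final, 2 h) after 3-day, 37° C exposure of replicon-bearing HUH-7 cells in 4% FCS DMEM, 0.5% DMSO. The 1b construct carries S1179I; the 1a H77 construct carries P1496L and S2204I. Twenty-point, 3-fold dilutions were fitted four-parametrically for EC50, and CC50 was taken from multiplexed Cell Titer-Blue.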

[2] = test system: HCV genotype 1b (Con1) replicon in HUH-7 cells; assay: HCV replicon luciferase reporter assay, genotype 1b; assay type: cell-based; settings: Hepatitis C virus, Huh-7, 72 h, 3 days incubation
Outline: as §1

[3] = HCV genotype 1a replicon luciferase, read-out: LE_1a (EC50, range)
[4] = HCV genotype 1b replicon luciferase, read-out: LE_1b (EC50, range)
[5] = HCV genotype 1a replicon luciferase assay, range class, read-out: LE_1a (EC50, range)
[6] = HCV genotype 1b replicon luciferase assay, range class, read-out: LE_1b (EC50, range)

SMILES | EC50 [1, 3] [nM] | EC50 [2, 4] [nM] | also measured
CCOc1ccc2c(O[C@@H]3C[C@H]4C(=O)N[C@]5(C(=O)NS(=O)(=O)C6(C)CC6)C[C@H]5/C=C\CC[C@H](C)C[C@@H](C)[C@H](NC(=O)O[C@H](C)C(F)(F)F)C(=O)N4C3)nccc2c1 [Compound 5141, (R)-1,1,1-trifluoropropan-2-yl ((2R,6S,7R,9S,13aS,14aR,16aS,Z)-2-((6-ethoxyisoquinolin-1-yl)oxy)-7,9-dimethyl-14a-(((1-methylcyclopropyl)sulfonyl)carbamoyl)-5,16-dioxo-1,2,3,5,6,7,8,9,10,11,13a,14,14a,15,16,16a-hexadecahydrocyclopropa[e]pyrrolo[1,2-a][1,4]diazacyclopentadecin-6-yl)carbamate] | 4.82 to 103 | < 5.46 | –
COCCn1nc(O[C@@H]2C[C@H]3C(=O)N[C@]4(C(=O)NS(=O)(=O)C5(C)CC5)C[C@H]4/C=C\CC[C@@H](C)C[C@@H](C)[C@H](NC(=O)OC(C)(C)C(F)(F)F)C(=O)N3C2)c2ccccc2c1=O [Compound 1014, 1,1,1-trifluoro-2-methylpropan-2-yl((2R,6S,7R,9R,13aS,14aR,16aS,Z)-2-((3-(2-methoxyethyl)-4-oxo-3,4-dihydrophthalazin-1-yl)oxy)-7,9-dimethyl-14a-(((1-methylcyclopropyl)sulfonyl)carbamoyl)-5,16-dioxo-1,2,3,5,6,7,8,9,10,11,13a,14,14a,15,16,16a-hexadecahydrocyclopropa[e]pyrrolo[1,2-a][1,4]diazacyclopentadecin-6-yl)carbamate] | – | – | EC50 [1, 5]: 4.82 to 103 nM; EC50 [2, 6]: 4.82 to 103 nM
COc1ccc2c(O[C@@H]3C[C@H]4C(=O)N[C@]5(C(=O)NS(=O)(=O)C6CC6)C[C@H]5/C=C\CC[C@H](C)C[C@@H](C)[C@H](NC(=O)OC(C)(C)C)C(=O)N4C3)nc(N3CCOCC3)cc2c1 [Compound 3106, tert-butyl ((2R,6S,7R,9S,13aS,14aR,16aS,Z)-14a-((cyclopropylsulfonyl)carbamoyl)-2-((6-methoxy-3-morpholinoisoquinolin-1-yl)oxy)-7,9-dimethyl-5,16-dioxo-1,2,3,5,6,7,8,9,10,11,13a,14,14a,15,16,16a-hexadecahydrocyclopropa[e]pyrrolo[1,2-a][1,4]diazacyclopentadecin-6-yl)carbamate] | – | – | EC50 [1, 5]: 4.82 to 103 nM; EC50 [2, 6]: 4.82 to 103 nM
C[C@@H]1CC/C=C\[C@@H]2C[C@@]2(C(=O)NS(=O)(=O)C2CC2)NC(=O)[C@@H]2C[C@@H](Oc3ncc(OC(F)F)c4c(Cl)cccc34)CN2C(=O)[C@@H](NC(=O)CC(C)(C)C(F)(F)F)[C@H](C)C1 [Compound 4031] | < 5.46 | < 5.46 | –
CCOc1cc2cc(OC)ccc2c(O[C@@H]2C[C@H]3C(=O)N[C@]4(C(=O)NS(=O)(=O)C5(C)CC5)C[C@H]4/C=C\CC[C@@H](C)C[C@@H](C)[C@H](NC(=O)OC(C)(C)C)C(=O)N3C2)n1 [Compound 3194, tert-butyl ((2R,6S,7R,9R,13aS,14aR,16aS,Z)-2-((3-ethoxy-6-methoxyisoquinolin-1-yl)oxy)-7,9-dimethyl-14a-(((1-methylcyclopropyl)sulfonyl)carbamoyl)-5,16-dioxo-1,2,3,5,6,7,8,9,10,11,13a,14,14a,15,16,16a-hexadecahydrocyclopropa[e]pyrrolo[1,2-a][1,4]diazacyclopentadecin-6-yl)carbamate] | 0.51 to 1 | 0.1 to 0.5 | EC50 ([1]; HCV genotype 1a replicon luciferase, read-out: LE_1a (EC50)): 0.62 nM; EC50 ([2]; HCV genotype 1b replicon luciferase, read-out: LE_1b (EC50)): 0.44 nM
CC[C@@H]1C[C@H](C)CC/C=C\[C@@H]2C[C@@]2(C(=O)NS(=O)(=O)C2(C)CC2)NC(=O)[C@@H]2C[C@@H](Oc3nc(OC)cc4cc(F)ccc34)CN2C(=O)[C@H]1NC(=O)OC(C)(C)C(F)(F)F [Compound 3220, 1,1,1-trifluoro-2-methylpropan-2-yl((2R,6S,7R,9R,13aS,14aR,16aS,Z)-7-ethyl-2-((6-fluoro-3-methoxyisoquinolin-1-yl)oxy)-9-methyl-14a-(((1-methylcyclopropyl)sulfonyl)carbamoyl)-5,16-dioxo-1,2,3,5,6,7,8,9,10,11,13a,14,14a,15,16,16a-hexadecahydrocyclopropa[e]pyrrolo[1,2-a][1,4]diazacyclopentadecin-6-yl)carbamate] | 1.01 to 5 | 0.1 to 0.5 | –
C[C@@H]1CCCC(O)[C@@H]2C[C@@]2(C(=O)NS(=O)(=O)C2(C)CC2)NC(=O)[C@@H]2C[C@@H](Oc3ncc(OC4CC4)c4ccccc34)CN2C(=O)[C@@H](NC(=O)OC(C)(C)C(F)(F)F)[C@H](C)C1 (stereo partly drawn) [Compound 2002] | – | – | EC50 [1, 5]: 4.82 to 103 nM; EC50 [2, 6]: 4.82 to 103 nM
[2H]C([2H])([2H])Oc1cnc(O[C@@H]2C[C@H]3C(=O)N[C@]4(C(=O)NS(=O)(=O)C5(C)CC5)C[C@H]4CCCC[C@@H](C)C[C@@H](C)[C@H](NC(=O)OC(C)(C)C(F)(F)F)C(=O)N3C2)c2ccccc12 [Compound 5111, 1,1,1-trifluoro-2-methylpropan-2-yl((2R,6S,7R,9R,13aR,14aR,16aS)-7,9-dimethyl-14a-(((1-methylcyclopropyl)sulfonyl)carbamoyl)-5,16-dioxo-2-((4-(trideuteromethoxy)isoquinolin-1-yl)oxy)octadecahydrocyclopropa[e]pyrrolo[1,2-a][1,4]diazacyclopentadecin-6-yl)carbamate] | < 5.46 | < 5.46 | –
COc1ccc2c(O[C@@H]3C[C@H]4C(=O)N[C@]5(C(=O)NS(=O)(=O)C6(C)CC6)C[C@H]5/C=C\CC[C@@H](C)C[C@@H](C)[C@H](NC(=O)OC(C)(C)C)C(=O)N4C3)nc(-c3ccc4c(c3)OCCO4)cc2c1 [Compound 5233, tert-butyl ((2R,6S,7R,9R,13aS,14aR,16aS,Z)-2-((3-(2,3-dihydrobenzo[b][1,4]dioxin-6-yl)-6-methoxyisoquinolin-1-yl)oxy)-7,9-dimethyl-14a-(((1-methylcyclopropyl)sulfonyl)carbamoyl)-5,16-dioxo-1,2,3,5,6,7,8,9,10,11,13a,14,14a,15,16,16a-hexadecahydrocyclopropa[e]pyrrolo[1,2-a][1,4]diazacyclopentadecin-6-yl)carbamate] | < 5.46 | < 5.46 | –
COc1ccc2nc(C(C)C)c(O[C@@H]3C[C@H]4C(=O)N[C@]5(C(=O)NS(=O)(=O)C6CC6)C[C@H]5/C=C\CC[C@@H](C)C[C@@H](C)[C@H](NC(=O)OC(C)(C)C)C(=O)N4C3)nc2c1 [Compound 4316, tert-butyl ((2R,6S,7R,9R,13aS,14aR,16aS,Z)-14a-((cyclopropylsulfonyl)carbamoyl)-2-((3-isopropyl-7-methoxyquinoxalin-2-yl)oxy)-7,9-dimethyl-5,16-dioxo-1,2,3,5,6,7,8,9,10,11,13a,14,14a,15,16,16a-hexadecahydrocyclopropa[e]pyrrolo[1,2-a][1,4]diazacyclopentadecin-6-yl)carbamate] | 1.01 to 5 | 1.01 to 5 | –
C[C@@H]1CC/C=C\[C@@H]2C[C@@]2(C(=O)NS(=O)(=O)C2(C)CC2)NC(=O)[C@@H]2C[C@@H](Oc3ncc(OCC4CC4)c4ccccc34)CN2C(=O)[C@@H](NC(=O)OC(C)(C)C(F)(F)F)[C@H](C)C1 [Compound 4158] | – | – | EC50 ([1]; GETYPE1A, HCV genotype 1a replicon luciferase, read-out: LE_1a (EC50, range)): < 5.46 nM; EC50 ([2]; GETYPE1B, HCV genotype 1b replicon luciferase, read-out: LE_1b (EC50, range)): < 5.46 nM
